Measurements: US8153787B2 (priority 2005, dated 2012)
In brackets after ≈: the same amount, converted by molar mass.

How the values were obtained:
Vaccinia virus [1] = assay type: cell-based
[2] = tested on: Vaccinia virus (Western Reserve) and recombinant viruses harboring the A314T, A684V or A314T+A684V mutations; assay type: cell-based
SiHa cells (HPV-16) = assay: Human cervical carcinoma (SiHa) xenografts in athymic nude mice; assay type: in vivo; conditions: 5 weeks intratumoral treatment
Description: (§1) Adult animals were injected subcutaneously with 5×10^6 SiHa cells, a human cervical carcinoma cell line which harbors integrated human papillomavirus (HPV-16). Once the tumors were established (approximately after 1 week), the mice were divided in several groups, the tumor size for each mouse was determined, and treatment with placebo (PBS) or the test compounds was started. The test solutions were administered intratumorally at a volume of 50 μl. Mice were treated once a day, 5 times a week for a period of 5 weeks. Every week, the tumor size for each animal was measured with a caliper in two perpendicular dimensions and tumor size was calculated by multiplying the two measured diameters.
as §1, with “s.c.” for “subcutaneously”, “intratumorally (i.t.)” for “intratumorally”

in vitro [3] = conditions: mouse
[4] = tested on: Herpes simplex virus-2 (G); assay type: cell-based
Cowpox virus (Brighton) = assay: microbe, parasite or virus in culture; assay type: cell-based
in vitro [5] = conditions: African green monkey
Vaccinia virus [6] = assay: organism not typed; assay type: cell-based; conditions: for EC50: HEL
[7] = tested on: Herpes simplex virus-1 (KOS and TK- KOS ACVr); assay type: cell-based
[8] = tested on: human cervical carcinoma xenografts (HeLa, CaSki cells); assay: Human cervical carcinoma xenografts (HeLa, CaSki) in athymic nude mice, FIG. 12; assay type: in vivo; conditions: 5 and 10 mg/mL doses, intratumoral
Description: as §1, with “FIGS. 12 A and B show the activity of (S)-HPMP-5-azacytosine compared to (S)-HPMPC against human papillomavirus in human cervical carcinoma xenografts in athymic nude mice. (A) Adult” for “Adult”, “HeLa” for “SiHa”, “diameters. […] Once the tumors were established (approximately after 1 week), the mice were divided in several groups, the tumor size for each mouse was determined, and treatment with placebo (PBS) or the test compounds was started. […] Every week, the tumor size for each animal was measured with a caliper in two perpendicular dimensions and tumor size was calculated by multiplying the two measured diameters.” for “diameters.”

For `Nc1ncn(C[C@@H](CO)OCP(=O)(O)O)c(=O)n1` [Compound 3, (S)-1-[3-hydroxy-2-(Phosphonomethoxy)propyl]-5-azacytosine], the “activity against Vaccinia virus in E6SM cell cultures” value (Vaccinia virus [1]) was “significant activity”, the “EC50 Vaccinia virus (Western Reserve) wild-type” value [2] was 1.58 µg/mL (≈ 5.64 µM) and the “EC50 recombinant vaccinia virus 314 + 684” value [2] was 10.8 µg/mL. For the same compound, the “EC50 recombinant vaccinia virus 684” value [2] was 6.88 µg/mL, the “EC50 recombinant vaccinia virus A314T” value [2] was 4.1 µg/mL and the “tumor size, SiHa xenografts” value (SiHa cells (HPV-16)) was “did not increase”. The CC50 (in vitro [3]) was 109 µg/mL (≈ 391 µM), the “activity against Herpes simplex virus-2 (G) in E6SM cell cultures” value [4] was “significant activity” and the “activity against Cowpox virus (Brighton) in HEL cells” value (Cowpox virus (Brighton)) was “significant activity”. The EC50 (Cowpox virus (Brighton); Cowpox virus, HEL, read-out: EC50 Cowpox virus Brighton) was 4.72 µg/mL (≈ 16.8 µM), the CC50 (in vitro [5]) was 129 µg/mL (≈ 460 µM) and the “activity against Vaccinia virus (Lederle, Lister, W R and Copenhagen) in HEL cells” value (Vaccinia virus [6]) was “significant activity”. It also gave an EC50 (Vaccinia virus [6]; read-out: EC50 Vaccinia Virus Lister) of 1.69 µg/mL (≈ 6.03 µM), an EC50 (Vaccinia virus [6]; Orthopoxvirus vaccinia, read-out: EC50 Vaccinia Virus Copenhagen) of 2.26 µg/mL (≈ 8.07 µM) and an EC50 (Vaccinia virus [6]; Orthopoxvirus vaccinia, read-out: EC50 Vaccinia Virus Lederle) of 1.7 µg/mL (≈ 6.07 µM). For the same compound, the EC50 (Vaccinia virus [6]; Orthopoxvirus vaccinia, read-out: EC50 Vaccinia Virus WR) was 2.45 µg/mL (≈ 8.74 µM), the “activity against Herpes simplex virus-1 (KOS and TK- KOS ACVr) in E6SM cell cultures” value [7] was “significant activity” and the “growth of tumors, human cervical carcinoma (FIG. 12)” value [8] was “inhibit the growth of tumors”.
